Assay results published in PMC4131897 (Biochemistry, 2014).
Positions count from the first letter of the chain named.

Key:
Assay type in all cases: binding
[1] = biological target: T1, BjPutA (proline utilization A) (Bradyrhizobium diazoefficiens, UniProt Q89E26, D779A); test: intrinsic tryptophan fluorescence quenching
T1 sequence (Q89E26 1-999 D779A): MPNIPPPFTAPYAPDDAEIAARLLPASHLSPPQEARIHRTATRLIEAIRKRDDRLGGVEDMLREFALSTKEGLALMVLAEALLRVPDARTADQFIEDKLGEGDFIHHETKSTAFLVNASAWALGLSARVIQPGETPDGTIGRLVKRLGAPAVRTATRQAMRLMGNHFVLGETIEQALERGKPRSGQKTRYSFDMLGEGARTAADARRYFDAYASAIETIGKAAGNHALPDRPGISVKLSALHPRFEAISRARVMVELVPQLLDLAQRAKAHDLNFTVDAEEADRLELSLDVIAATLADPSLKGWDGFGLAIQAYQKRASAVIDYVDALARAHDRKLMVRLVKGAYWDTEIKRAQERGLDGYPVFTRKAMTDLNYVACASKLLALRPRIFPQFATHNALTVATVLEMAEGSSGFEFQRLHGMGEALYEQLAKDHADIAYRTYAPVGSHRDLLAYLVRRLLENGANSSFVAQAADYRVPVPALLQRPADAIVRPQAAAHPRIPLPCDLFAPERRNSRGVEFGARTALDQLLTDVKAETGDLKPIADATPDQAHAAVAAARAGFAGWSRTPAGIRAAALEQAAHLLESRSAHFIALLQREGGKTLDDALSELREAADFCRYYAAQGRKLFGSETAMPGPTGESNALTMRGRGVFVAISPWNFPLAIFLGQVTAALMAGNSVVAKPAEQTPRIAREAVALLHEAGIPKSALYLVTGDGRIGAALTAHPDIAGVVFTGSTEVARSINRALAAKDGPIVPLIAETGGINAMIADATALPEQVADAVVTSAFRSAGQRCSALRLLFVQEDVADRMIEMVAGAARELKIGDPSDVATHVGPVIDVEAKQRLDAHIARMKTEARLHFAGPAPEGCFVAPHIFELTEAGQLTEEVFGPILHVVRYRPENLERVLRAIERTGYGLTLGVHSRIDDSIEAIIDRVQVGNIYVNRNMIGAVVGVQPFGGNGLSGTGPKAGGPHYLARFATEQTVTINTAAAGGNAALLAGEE

[2] = biological target: T2, BjPutA (proline utilization A) (Bradyrhizobium diazoefficiens, UniProt Q89E26, T348Y); test: intrinsic tryptophan fluorescence quenching
T2 sequence (Q89E26 1-999 T348Y): T1 sequence (Q89E26 1-999 D779A) with T348Y, A779D

[3] = biological target: T3, BjPutA (proline utilization A) (Bradyrhizobium diazoefficiens, UniProt Q89E26); test: intrinsic tryptophan fluorescence quenching, single-site fit
T3 sequence (Q89E26 1-999): T1 sequence (Q89E26 1-999 D779A) with A779D

NC(=O)c1ccc[n+]([C@@H]2O[C@H](COP(=O)(O)OP(=O)(O)OC[C@H]3O[C@@H](n4cnc5c(N)ncnc54)[C@H](O)[C@@H]3O)[C@@H](O)[C@H]2O)c1 [NAD^+]
Kd [1]: 640 ± 50 nM
Kd [2]: 750 ± 60 nM
Kd [3]: 600 ± 40 nM
